Earlier results, collected in US4693997A, “Novel pharmaceutical composition” (priority 1982, dated 1987).
Counter-ions that a name gives are not always drawn. Like-named read-outs stand apart in the source and are kept apart here.

Tested on: mucosa in the oesophagus
Settings: oral tablets
[1] = compared with emepronium bromide tablets

SMILES | oesophageal irritation and ulceration [1] | oesophageal irritation and ulceration (Bennett, Lancet 1977, 1, 810)
CC1c2cccc(O)c2C(=O)C2=C(O)C3(O)C(=O)C(C(N)=O)=C(O)C(N(C)C)C3C(O)C21 (stereo not drawn) [doxycycline hydrochloride] | same type of irritation and ulceration | 
CC[N+](C)(C)C(C)CC(c1ccccc1)c1ccccc1 (stereo not drawn) [emepronium bromide] |  | severe irritation and ulceration in the oesophagus
CC(C)NCC(O)COc1cccc2ccccc12 (stereo not drawn) [propranolol hydrochloride] | same type of irritation and ulceration | 
